Experiments:
Format in all cases: cell-based
[1] = test system: α-SMA expression in normal human dermal fibroblasts (NHDFs); assay: Inhibition of TGF-β-induced differentiation of fibroblasts into myofibroblasts: α-SMA expression by quantitative RT-PCR and Western blot; details: NHDF cultures, TGF-β 10 ng/ml, KSOS 2 mg/ml, D4
Description: (§1) Cultures of normal human dermal fibroblasts (NHDFs) were prepared in DMEM/F12 culture medium (sold by the company Invitrogen) supplemented with 10% of fetal calf serum (sold by the company Invitrogen), with 5 μg/ml of insulin (sold by the company Promokine) and with 1 ng/ml of bFGF (sold by the company Promokine).
(§2) For this, the NHDF cultures were placed in a P100 dish coated with collagen at 5 μg/ml in DMEM/F12 medium supplemented with 10% of fetal calf serum and supplemented with 10 ng/ml of TGF-β(sold by the company Promocell), which is a growth factor that controls cell proliferation and differentiation (differentiated control in FIG. 1).
(§3) A nondifferentiated control was also prepared using cultures in DMEM/F12 supplemented with 10% calf serum without TGF-β.
(§4) The KSOS was added to the control and differentiated-control cultures to determine its effect on differentiation, in a proportion of 2 mg/ml.
(§5) The results were analyzed after 4 days of culture.
For the measurement of the inhibitory effect of the compound according to the invention, KSOS was added at 2 mg/ml to the cultures undergoing differentiation. • By quantitative RT-PCR: the mRNA was extracted using the Trizol, chloroform and isopropanol method. • By the Western blot method: total cell extracts were prepared and a Western blot was carried out. […]

[2] = test system: normal human dermal fibroblasts (NHDFs); assay: Differentiation of fibroblasts into myofibroblasts: α-SMA immunofluorescence and counting of differentiated cells; details: NHDF cultures, TGF-β 10 ng/ml, KSOS 2 mg/ml, 4 days of culture
Description: as §1, §2, §3, §4, §5
The cells were fixed with 4% formaldehyde and permeabilized with Triton. The immunolabeling is carried out using DAPI staining (which gives a blue color) for the cell nuclei, a rabbit anti-α-SMA antibody and an anti-rabbit secondary antibody coupled to Cys3 (sold by Promega).
The number of differentiated cells over the total number of cells is determined by cell counting. […]

[3] = test system: collagen lattices seeded with normal human dermal fibroblasts (NHDFs); assay: Collagen lattice retraction (area of collagen lattices seeded with NHDFs); details: for % relative to the control: lattice area relative to control without dressing
Description: The collagen lattices were obtained by seeding 0.8×10^6 normal human dermal fibroblasts (NHDFs) in a gel of collagen type I with a final concentration of 1.3 mg/ml.
A dressing (sold under the trade name Urgotul Start) comprising 7.5% of the potassium salt of sucrose octasulfate was applied to the surface of the collagen lattices.
A control series, without dressing, was carried out in order to evaluate the normal contraction of the collagen gel by the seeded NHDFs.
Likewise, a positive control was carried out by adding TGF-β at a concentration of 10 ng/ml in order to visualize the strong contraction induced by the NHDFs highly differentiated into myofibroblasts.
The incubation was maintained up to 7 days.
The effects of the potassium salt of sucrose octasulfate on the retraction of the collagen lattices was observed by means of photographic analysis (FIG. 2) and image analysis measurement of the area of the lattices once contracted.

Molecule | α-SMA expression (mRNA by quantitative RT-PCR, protein by Western blot) [1] | differentiation of fibroblasts into myofibroblasts (differentiated cells expressing α-SMA, immunofluorescence) [2] | contraction of the collagen lattices (in words) ([3]; between day 1 and day 7) | Average of the areas ([3]; Day 1) [mm^2] | % relative to the control ([3]; Day 1) [%] | Average of the areas ([3]; Day 4) [mm^2] | % relative to the control ([3]; Day 4) [%] | Average of the areas ([3]; Day 7) [mm^2] | % relative to the control ([3]; Day 7) [%]
O=S(=O)([O-])OC[C@H]1O[C@@](COS(=O)(=O)[O-])(O[C@H]2O[C@H](COS(=O)(=O)[O-])[C@@H](OS(=O)(=O)[O-])[C@H](OS(=O)(=O)[O-])[C@H]2OS(=O)(=O)[O-])[C@@H](OS(=O)(=O)[O-])[C@@H]1OS(=O)(=O)[O-].[K+].[K+].[K+].[K+].[K+].[K+].[K+].[K+] [KSOS, potassium salt of sucrose octasulfate] | inhibition of this induction | inhibition of the differentiation | limits the contraction of the collagen lattices | – | – | – | – | – | –
TGF-β | induction of α-SMA expression | – | – | 217.3 | 95 | 145.9 | 76 | 97 | 56
